Results reported in ChEMBL document CHEMBL5212743, “Selectivity Literature for EUbOPEN Chemogenomics Library wave 3” (2023).
One block for each molecule: values may come before it.

Columns and labels:
[1] = target: Ephrin type-B receptor 2 (Homo sapiens, UniProt P29323)
[2] = target: Calcium/calmodulin-dependent protein kinase type IV (Homo sapiens) (UniProt Q16566); conditions: at 1 µM
[3] = target: Insulin receptor (Homo sapiens, UniProt P06213)
[4] = target: T1, Serine/threonine-protein kinase Sgk1 (Homo sapiens) (UniProt O00141); conditions: at 1 µM
T1 sequence (whole entry): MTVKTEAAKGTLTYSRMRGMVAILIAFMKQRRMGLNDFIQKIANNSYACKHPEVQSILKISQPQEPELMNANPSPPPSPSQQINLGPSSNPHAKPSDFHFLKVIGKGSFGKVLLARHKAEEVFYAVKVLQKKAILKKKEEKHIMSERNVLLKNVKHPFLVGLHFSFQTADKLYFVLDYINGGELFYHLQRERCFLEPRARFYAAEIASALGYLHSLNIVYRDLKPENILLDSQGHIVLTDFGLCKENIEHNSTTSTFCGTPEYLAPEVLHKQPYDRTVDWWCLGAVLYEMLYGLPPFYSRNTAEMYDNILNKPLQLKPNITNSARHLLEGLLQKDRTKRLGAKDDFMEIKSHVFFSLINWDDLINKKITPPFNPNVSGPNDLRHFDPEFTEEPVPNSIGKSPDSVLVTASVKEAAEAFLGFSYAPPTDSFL

[5] = target: T2, Mitogen-activated protein kinase 15 (Homo sapiens) (UniProt Q8TD08); conditions: at 10 µM
T2 sequence (whole entry): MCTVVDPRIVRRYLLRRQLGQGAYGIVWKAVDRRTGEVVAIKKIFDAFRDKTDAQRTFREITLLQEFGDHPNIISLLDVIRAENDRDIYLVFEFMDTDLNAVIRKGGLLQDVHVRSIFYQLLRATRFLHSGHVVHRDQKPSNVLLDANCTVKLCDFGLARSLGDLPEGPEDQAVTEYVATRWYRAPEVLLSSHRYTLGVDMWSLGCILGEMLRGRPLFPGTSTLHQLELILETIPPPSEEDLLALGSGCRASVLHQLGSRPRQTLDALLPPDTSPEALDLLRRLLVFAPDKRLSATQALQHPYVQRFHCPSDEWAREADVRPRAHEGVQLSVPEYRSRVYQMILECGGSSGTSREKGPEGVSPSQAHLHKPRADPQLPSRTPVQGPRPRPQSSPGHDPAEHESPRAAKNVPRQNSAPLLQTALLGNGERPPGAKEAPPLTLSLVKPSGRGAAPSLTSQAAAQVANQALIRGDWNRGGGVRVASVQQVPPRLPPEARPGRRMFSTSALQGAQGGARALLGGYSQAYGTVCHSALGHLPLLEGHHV

[6] = target: Acetylcholinesterase (Homo sapiens, UniProt P22303); test: Selectivity interaction (NIBR principial panel (12 GPCRs, 3 nuclear receptors, 3 transporters, and 7 other enzymes)) EUB0000254b ACHE
Sequence of Acetylcholinesterase (P22303 whole entry): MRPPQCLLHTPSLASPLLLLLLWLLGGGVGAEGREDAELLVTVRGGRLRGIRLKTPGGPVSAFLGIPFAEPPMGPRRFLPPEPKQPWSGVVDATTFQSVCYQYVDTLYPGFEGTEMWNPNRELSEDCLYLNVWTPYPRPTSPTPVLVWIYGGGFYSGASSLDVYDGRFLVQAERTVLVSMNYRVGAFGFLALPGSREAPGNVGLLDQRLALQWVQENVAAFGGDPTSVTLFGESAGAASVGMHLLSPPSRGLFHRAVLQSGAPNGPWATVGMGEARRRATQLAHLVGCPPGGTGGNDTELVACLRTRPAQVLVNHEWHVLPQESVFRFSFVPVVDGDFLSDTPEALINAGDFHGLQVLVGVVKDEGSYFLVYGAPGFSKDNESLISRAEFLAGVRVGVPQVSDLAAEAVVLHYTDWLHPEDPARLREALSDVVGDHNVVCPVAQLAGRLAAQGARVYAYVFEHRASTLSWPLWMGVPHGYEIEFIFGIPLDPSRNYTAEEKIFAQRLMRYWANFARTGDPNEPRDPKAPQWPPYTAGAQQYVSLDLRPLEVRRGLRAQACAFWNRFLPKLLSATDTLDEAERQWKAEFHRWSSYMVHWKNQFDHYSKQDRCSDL

[7] = target: Prostaglandin G/H synthase 2 (Homo sapiens, UniProt P35354); test: Selectivity interaction (NIBR principial panel (12 GPCRs, 3 nuclear receptors, 3 transporters, and 7 other enzymes)) EUB0000254b PTGS2
Sequence of Prostaglandin G/H synthase 2 (P35354 whole entry): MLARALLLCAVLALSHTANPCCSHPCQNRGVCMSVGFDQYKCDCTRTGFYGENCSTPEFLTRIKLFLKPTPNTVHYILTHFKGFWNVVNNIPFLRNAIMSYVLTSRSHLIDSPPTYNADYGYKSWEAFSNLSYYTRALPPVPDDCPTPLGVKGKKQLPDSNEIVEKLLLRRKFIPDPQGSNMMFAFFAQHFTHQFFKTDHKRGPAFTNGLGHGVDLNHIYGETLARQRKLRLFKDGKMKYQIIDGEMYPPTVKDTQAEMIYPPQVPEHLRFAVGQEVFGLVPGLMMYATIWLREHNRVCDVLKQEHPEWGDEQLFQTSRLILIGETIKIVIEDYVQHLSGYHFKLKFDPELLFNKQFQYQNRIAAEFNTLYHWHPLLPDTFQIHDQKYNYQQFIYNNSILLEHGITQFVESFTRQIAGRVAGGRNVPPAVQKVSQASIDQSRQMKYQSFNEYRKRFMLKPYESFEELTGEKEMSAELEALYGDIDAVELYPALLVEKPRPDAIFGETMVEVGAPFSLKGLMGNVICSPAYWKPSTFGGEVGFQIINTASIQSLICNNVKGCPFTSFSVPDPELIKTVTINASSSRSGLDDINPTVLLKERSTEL

[8] = target: D(3) dopamine receptor (Homo sapiens, UniProt P35462); test: Selectivity interaction (NIBR principial panel (12 GPCRs, 3 nuclear receptors, 3 transporters, and 7 other enzymes)) EUB0000254b DRD3
Sequence of D(3) dopamine receptor (P35462 whole entry): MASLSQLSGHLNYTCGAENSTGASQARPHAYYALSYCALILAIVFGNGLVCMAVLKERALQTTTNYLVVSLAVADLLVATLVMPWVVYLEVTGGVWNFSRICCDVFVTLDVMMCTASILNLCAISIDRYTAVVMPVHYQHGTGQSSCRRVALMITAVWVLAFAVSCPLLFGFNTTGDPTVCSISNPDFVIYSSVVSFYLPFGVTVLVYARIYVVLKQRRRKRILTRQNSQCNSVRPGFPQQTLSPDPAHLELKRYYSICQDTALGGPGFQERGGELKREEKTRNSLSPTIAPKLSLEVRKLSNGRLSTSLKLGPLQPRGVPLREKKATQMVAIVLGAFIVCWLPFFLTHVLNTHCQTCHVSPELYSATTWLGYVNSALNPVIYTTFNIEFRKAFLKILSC

[9] = target: Death-associated protein kinase 2 (Homo sapiens) (UniProt Q9UIK4); test: Selectivity interaction (KinomeScan (DiscoverX)) EUB0000747a DAPK2; conditions: at 1 µM
[10] = target: 5-hydroxytryptamine receptor 7 (Homo sapiens, UniProt P34969); test: Selectivity interaction (GPCR panel (PDSP screen)) EUB0000747a HTR7
[11] = test system: T3, Receptor-type tyrosine-protein kinase FLT3 (Homo sapiens), P36888 [D835Y]; test: Selectivity interaction (KinomeScan (DiscoverX)) EUB0000747a FLT3; conditions: at 1 µM
T3 sequence (whole entry): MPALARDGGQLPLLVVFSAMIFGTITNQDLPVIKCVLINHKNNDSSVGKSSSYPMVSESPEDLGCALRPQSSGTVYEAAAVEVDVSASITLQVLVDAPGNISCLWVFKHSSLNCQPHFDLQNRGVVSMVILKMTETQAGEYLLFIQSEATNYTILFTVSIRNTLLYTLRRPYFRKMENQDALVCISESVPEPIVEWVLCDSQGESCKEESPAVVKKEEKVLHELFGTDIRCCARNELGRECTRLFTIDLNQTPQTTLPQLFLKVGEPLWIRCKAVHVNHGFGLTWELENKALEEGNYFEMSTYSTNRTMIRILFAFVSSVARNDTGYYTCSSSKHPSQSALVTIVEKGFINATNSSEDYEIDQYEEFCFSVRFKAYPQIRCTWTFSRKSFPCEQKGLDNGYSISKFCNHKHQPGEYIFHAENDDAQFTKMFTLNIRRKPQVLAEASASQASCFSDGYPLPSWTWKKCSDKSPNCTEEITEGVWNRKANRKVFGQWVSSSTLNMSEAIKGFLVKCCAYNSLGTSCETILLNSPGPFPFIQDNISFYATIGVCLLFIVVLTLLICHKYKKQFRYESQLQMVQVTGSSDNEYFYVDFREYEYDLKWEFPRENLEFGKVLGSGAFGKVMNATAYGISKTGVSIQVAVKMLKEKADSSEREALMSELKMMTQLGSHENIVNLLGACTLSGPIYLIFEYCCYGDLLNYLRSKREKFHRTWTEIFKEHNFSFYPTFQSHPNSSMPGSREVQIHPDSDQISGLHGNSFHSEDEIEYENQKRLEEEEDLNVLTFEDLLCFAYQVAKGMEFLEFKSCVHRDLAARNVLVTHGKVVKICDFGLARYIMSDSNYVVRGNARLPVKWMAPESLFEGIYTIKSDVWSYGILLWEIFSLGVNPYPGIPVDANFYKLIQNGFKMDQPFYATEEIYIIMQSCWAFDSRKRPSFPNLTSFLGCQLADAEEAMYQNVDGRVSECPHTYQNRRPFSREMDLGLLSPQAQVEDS

[12] = target: Microtubule-associated serine/threonine-protein kinase 1 (Homo sapiens) (UniProt Q9Y2H9); test: Selectivity interaction (KinomeScan (DiscoverX)) EUB0000747a MAST1; conditions: at 1 µM
Sequence of Microtubule-associated serine/threonine-protein kinase 1 (Homo sapiens) (Q9Y2H9 whole entry, looked up): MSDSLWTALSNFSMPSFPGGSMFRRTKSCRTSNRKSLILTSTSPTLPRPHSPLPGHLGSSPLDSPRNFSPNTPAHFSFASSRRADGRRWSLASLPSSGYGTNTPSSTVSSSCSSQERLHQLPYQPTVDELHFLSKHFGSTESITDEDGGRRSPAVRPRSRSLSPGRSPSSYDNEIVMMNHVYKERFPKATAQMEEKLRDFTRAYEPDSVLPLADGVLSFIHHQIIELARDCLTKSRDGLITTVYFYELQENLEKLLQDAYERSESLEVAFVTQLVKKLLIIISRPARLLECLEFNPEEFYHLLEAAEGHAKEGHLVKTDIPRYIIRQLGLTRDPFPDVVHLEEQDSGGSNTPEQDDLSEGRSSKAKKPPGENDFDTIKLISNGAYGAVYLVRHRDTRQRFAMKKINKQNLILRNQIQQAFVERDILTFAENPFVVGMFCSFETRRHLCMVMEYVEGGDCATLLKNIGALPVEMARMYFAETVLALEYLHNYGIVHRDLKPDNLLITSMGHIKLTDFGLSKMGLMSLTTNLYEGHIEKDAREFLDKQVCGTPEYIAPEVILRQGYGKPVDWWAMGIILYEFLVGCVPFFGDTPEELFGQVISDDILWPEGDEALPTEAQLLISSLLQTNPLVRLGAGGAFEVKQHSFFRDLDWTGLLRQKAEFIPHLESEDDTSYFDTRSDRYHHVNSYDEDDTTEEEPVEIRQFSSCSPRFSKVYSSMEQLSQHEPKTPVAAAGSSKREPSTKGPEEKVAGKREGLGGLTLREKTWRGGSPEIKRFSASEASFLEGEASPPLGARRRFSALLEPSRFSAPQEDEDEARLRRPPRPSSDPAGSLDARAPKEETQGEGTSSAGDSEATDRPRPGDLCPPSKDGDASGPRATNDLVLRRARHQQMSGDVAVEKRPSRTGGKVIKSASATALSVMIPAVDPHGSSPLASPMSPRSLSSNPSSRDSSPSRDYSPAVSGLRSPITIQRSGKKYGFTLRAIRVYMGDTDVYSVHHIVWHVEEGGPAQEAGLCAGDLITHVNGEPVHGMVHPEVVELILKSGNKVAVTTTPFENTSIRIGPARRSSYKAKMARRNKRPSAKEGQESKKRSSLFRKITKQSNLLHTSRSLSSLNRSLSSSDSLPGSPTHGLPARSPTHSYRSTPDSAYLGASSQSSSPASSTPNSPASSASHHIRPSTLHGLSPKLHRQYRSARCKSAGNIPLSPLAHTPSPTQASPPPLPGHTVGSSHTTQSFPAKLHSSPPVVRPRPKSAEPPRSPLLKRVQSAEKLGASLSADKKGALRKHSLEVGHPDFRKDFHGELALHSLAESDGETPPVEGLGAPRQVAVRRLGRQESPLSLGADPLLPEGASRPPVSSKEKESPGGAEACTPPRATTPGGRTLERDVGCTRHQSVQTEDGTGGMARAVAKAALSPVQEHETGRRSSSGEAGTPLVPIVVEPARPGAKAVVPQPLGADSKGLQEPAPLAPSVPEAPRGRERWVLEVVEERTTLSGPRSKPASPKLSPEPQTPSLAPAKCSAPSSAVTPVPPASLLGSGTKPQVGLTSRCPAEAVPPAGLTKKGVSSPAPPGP

Sequence of Calcium/calmodulin-dependent protein kinase type IV (Homo sapiens) (Q16566 whole entry): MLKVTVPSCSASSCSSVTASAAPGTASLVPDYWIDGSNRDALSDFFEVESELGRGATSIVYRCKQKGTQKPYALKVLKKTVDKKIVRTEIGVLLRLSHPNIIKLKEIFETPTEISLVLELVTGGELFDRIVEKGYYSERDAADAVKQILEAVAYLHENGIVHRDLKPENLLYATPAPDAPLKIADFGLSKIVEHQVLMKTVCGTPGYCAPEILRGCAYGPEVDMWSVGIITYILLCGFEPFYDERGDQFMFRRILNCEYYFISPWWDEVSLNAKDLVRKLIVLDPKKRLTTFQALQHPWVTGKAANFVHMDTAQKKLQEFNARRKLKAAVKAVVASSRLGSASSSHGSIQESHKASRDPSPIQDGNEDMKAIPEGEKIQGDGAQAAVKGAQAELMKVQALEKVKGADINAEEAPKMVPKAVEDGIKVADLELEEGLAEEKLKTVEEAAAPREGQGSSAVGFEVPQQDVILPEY
Sequence of Ephrin type-B receptor 2 (P29323 whole entry): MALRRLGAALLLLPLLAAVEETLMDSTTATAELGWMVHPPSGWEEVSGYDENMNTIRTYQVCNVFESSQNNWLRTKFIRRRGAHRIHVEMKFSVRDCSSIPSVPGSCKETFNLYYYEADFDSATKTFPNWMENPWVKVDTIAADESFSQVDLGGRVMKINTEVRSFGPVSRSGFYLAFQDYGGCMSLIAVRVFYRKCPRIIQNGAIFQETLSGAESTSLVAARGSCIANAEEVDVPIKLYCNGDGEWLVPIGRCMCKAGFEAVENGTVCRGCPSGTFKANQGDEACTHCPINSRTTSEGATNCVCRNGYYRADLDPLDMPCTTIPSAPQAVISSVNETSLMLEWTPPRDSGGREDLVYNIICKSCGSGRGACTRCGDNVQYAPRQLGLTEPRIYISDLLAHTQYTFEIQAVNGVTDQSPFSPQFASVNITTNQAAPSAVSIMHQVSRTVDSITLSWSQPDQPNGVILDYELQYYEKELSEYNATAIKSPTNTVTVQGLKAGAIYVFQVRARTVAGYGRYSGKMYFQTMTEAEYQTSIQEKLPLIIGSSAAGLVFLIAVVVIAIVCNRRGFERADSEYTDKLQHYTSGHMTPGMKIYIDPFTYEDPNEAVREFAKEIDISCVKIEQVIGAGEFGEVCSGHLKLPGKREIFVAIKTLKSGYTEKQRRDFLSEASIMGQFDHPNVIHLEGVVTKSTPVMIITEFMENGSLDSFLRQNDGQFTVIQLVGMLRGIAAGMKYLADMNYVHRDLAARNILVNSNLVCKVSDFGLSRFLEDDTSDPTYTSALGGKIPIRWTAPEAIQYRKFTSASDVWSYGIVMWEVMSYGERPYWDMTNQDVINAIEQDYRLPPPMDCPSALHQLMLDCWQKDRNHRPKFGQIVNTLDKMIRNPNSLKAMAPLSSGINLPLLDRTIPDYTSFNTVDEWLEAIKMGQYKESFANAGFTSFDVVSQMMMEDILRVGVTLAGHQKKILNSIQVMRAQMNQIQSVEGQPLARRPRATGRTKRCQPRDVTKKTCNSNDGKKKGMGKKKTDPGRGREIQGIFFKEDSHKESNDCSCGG

- IC50 [1]: > 10 µM
- % of inhibition [2]: 22.5%
- IC50 [3]: > 10 µM
- % of inhibition [4]: 0.3%
SMILES: OCCn1cc(-c2cnc3nnn(Cc4ccc5ncccc5c4)c3n2)cn1 [PF-04217903]
- % of inhibition [5]: 0.4%

SMILES: Cc1c(Nc2ccc(S(=O)(=O)N3CCN(C)CC3)cc2F)nc2ccc(Nc3cnn(C4CC4)c3)cn2c1=O
- IC50 [6]: 5.5 µM
- IC50 [7]: 0.8 µM
- IC50 [8]: 0.95 µM

- Ki [10]: > 10 µM
- % of control [11]: 42%
- % of control [12]: 29%
SMILES: CO[C@@H](C)c1c(Nc2ccc([C@@H](N(C)C(=O)C3CCS(=O)(=O)CC3)C(F)(F)F)cc2)cnc2cc(Cl)nn12 [NVS-MALT1-C]
- % of control [9]: 41%
